# From patent US4795639A, “Potentiating formulations” (priority 1971, dated 1989)
# Values joined by “and” are separate entries in the source; they are usually repeats but may differ in a detail not shown here. Equal entries are not always repeated.
# Legend:
# [1] = system: Staphylococcus aureus CN 491; experiment: testing discs on standard nutrient medium; format: cell-based; conditions: Staphylococcus aureus, CN491; read-out: Size of zone in cm (×6 magnification)
# Staphylococcus aureus [2] = experiment: zone inhibition, pteridine in agar, drugs in well; format: cell-based; conditions: for complete zone inhibition, SMX (300) / zone including partial inhibition, SMX (300): SMX 300 μg/ml; for complete zone inhibition, TMP + SMX (5) (100) / zone including partial inhibition, TMP + SMX (5) (100): TMP 5 + SMX 100 μg/ml
# Description: (§1) The pteridine was included in a soya peptone medium of low thymidine content (Wellcotest Sensitivity Test Agar) contained in a Petri-dish and the other component(s) added to the well resulting from the removal of a small plug from the medium. The surface of the medium was inoculated with the test organism and then incubated.
# Pseudomonas aeruginosa = experiment: zone inhibition, pteridine in agar, drugs in well; format: cell-based; conditions: for complete zone inhibition, SMX (300) / zone including partial inhibition, SMX (300): SMX 300 μg/ml; for zone including partial inhibition, TMP (30): TMP 30 μg/ml; for complete zone inhibition, TMP + SMX (5) (100) / zone including partial inhibition, TMP + SMX (5) (100): TMP 5 + SMX 100 μg/ml
# Description: as §1
# E. tenella = experiment: coccidiosis screening test in chicks, E. tenella; format: in vivo, Eimeria tenella
# Description: "Screening tests" were performed to establish the effectiveness of the compounds of formula (I) both alone and in combination with a competitor and or an inhibitor and to determine the most useful levels of relative concentrations of each component in combatting or suppressing coccidiosis.
# Groups of Ranger cockerels, housed in small, heated cages with wire floors situated in enironmentally controlled isolation rooms, were infected orally with sporulated oocysts of the Eimeria spp such as E. tenella or E. acervulina. The appropriate test compound(s), (DMHP, sulphaquinoxaline (SQX) or diaveridine (DV) or any combination of these) were incorporated in a small quantity of specially formulated laboratory ration deficient in Vitamin K (`L.D.4 mash`), as a 1/10 pre-mix, which was then mixed into the diet on a horizontal roller drum mixed and administered to groups of chicks one day prior to infection, leaving some groups as untreated controls. Administration was continued for several days, for example about 8 or 9 days.
# The amount of damage, marked by lesions in the caecal walls was investigated in those chicks that died during the course of the experiment, and in those sacrificed on the final day of administration, and compared with the untreated controls as a basis for the determination of therapeutic activity. In addition the mortality rate and the percentage weight gains in the various groups were assessed. A marked or definite effect of the administered drug could be recognised even when the mortality rates were similar or identical, since the increase in the weight gains and the reduction of the extension of lesions indicated by the lesion score, is characteristic of an improvement. […]
# 4:1 sulphaquinoxaline/diaveridine mixtures at levels of 80/20, 60/15, 40/10 and 20/5 p.p.m. were administered alone and in combination with a wide range of low concentrations of DMHP to the birds.
# The results of these screening tests are set forth in Table 4 showing the concentration of the various component compounds in parts per million of the bird's diet, the mortality from coccidiosis, the percentage weight gain, the lesion score the oocyst output, and the activity. The caecal lesion index is calculated using a score system where: […]
# In addition a score of 4 is assigned to any bird that dies of coccidiosis during the experiment. [formula] In the activity column, +++, ++, +, ± and - relate respectively to very high, high, slight, doubtful and nil activity of the test drug against the Eimeria infection.
# [3] = target: T1, dihydropteroate synthetase (Escherichia coli, UniProt P0AC13); experiment: `synthetase` assay: formation of dihydropteroate-C^14; format: biochemical, E. coli
# T1 construct: incubating an extract of E. coli with pAB-7-C^14; endogenous in cells; host or cells: E. coli extract (synthetase separated from HMPPS on Sephadex G-100, as concluded from part (a))
# T1 sequence (P0AC13 whole entry): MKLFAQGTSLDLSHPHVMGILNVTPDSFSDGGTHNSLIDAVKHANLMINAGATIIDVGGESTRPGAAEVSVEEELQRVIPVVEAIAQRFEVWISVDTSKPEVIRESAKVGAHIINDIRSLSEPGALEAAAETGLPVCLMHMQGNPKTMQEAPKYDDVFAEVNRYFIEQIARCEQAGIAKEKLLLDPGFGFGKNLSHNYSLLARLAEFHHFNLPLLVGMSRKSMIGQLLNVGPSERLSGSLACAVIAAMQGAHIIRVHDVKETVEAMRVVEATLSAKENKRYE
# Description: (b) The activity of the test compound against `synthetase` was determined as follows, by monitoring the formulation of dihydropteroate-C^14.
# A pool of Pt was prepared from ATP neutralised (50 μl, 0.1M), MgCl2.6H2 O (50 μl, 0.1M), dithiothreitol (100 μl, 0.1M), tris buffer (100 μl, 0.4M, pH 8.3), HMPt (25 μl, 876 μM) and 170 μl of a solution containing HMPPS. The mixture was incubated for 60 minutes at 37° C., chilled briefly on ice and then dextrose (100 μl containing 72.1 mg/ml) and hexokinase (20 μl containing 2000 units/ml) were added at room temperature to the solution, which was allowed to stand at this temperature for 15 minutes.
# A solution of MgCl2.6H2 O (10 μl, 0.1M), pAB-C^14 (10 μl, 0.4 mM), dithiothreitol (20 μl, 0.1M) and tris buffer (20 μl, 0.4M, pH8.3) was made in each of five test tubes and then 80 μl of the contents of the pool added to each, together with synthetase and/or test compound as indicated in TABLE 2. The solution was then made up to 200 μl with distilled water.
# All seven tubes were then incubated for 30 minutes at 37° C., chilled on ice and then these, together with control tubes 10 to 12 from part (a), were chromatographically analysed as follows:
# 100 μl of the contents of each of the tubes was spotted onto Whatman No. 3 MM chromatography paper (2×20 cm) at the `origin`, the run descending in a Sorenson buffer of potassium and sodium phosphates (0.1M, pH 7.0) for 10 to 15 cm.
# Escherichia coli CN 314 = experiment: testing discs on standard nutrient medium; format: cell-based; conditions: Escherichia coli, CN314; read-out: Size of zone in cm (×6 magnification)
# Staphylococcus aureus [4] = experiment: M.I.C. in Wellcome Nutrient Agar, 18 hours at 37° C.; format: cell-based
# [5] = pteridine 3 μg/ml, TMP 30 μg/ml
# [6] = pteridine 10 μg/ml, TMP 30 μg/ml
structure (smiles),measurement,setting,value
"CC1(C)Nc2nc(N)nc(O)c2N=C1CO [DMHP, 2-amino-4-hydroxy-6-hydroxymethyl-7,7-dimethyl-7,8-dihydropteridine]",zone of inhibition at 100 µg/disc,[1],0 mm
same,"complete zone inhibition, SMX (300)",Staphylococcus aureus [2]; pteridine 3 μg/ml,4.0 centimeters
same,"zone including partial inhibition, SMX (300)",Staphylococcus aureus [2]; pteridine 3 μg/ml,10.0 centimeters
same,"complete zone inhibition, TMP (30)",Staphylococcus aureus [2]; [5],8.0 centimeters
same,"zone including partial inhibition, TMP (30)",Staphylococcus aureus [2]; [5],10.0 centimeters
same,"complete zone inhibition, TMP + SMX (5) (100)",Staphylococcus aureus [2]; pteridine 3 μg/ml,10.0 centimeters
same,"zone including partial inhibition, TMP + SMX (5) (100)",Staphylococcus aureus [2]; pteridine 3 μg/ml,12.0 centimeters
same,"complete zone inhibition, SMX (300)",Staphylococcus aureus [2]; pteridine 10 μg/ml,5.0 centimeters
same,"zone including partial inhibition, SMX (300)",Staphylococcus aureus [2]; pteridine 10 μg/ml,12.0 centimeters
same,"complete zone inhibition, TMP (30)",Staphylococcus aureus [2]; [6],8.5 centimeters
same,"zone including partial inhibition, TMP (30)",Staphylococcus aureus [2]; [6],10.5 centimeters
same,"complete zone inhibition, TMP + SMX (5) (100)",Staphylococcus aureus [2]; pteridine 10 μg/ml,10.5 centimeters
same,"zone including partial inhibition, TMP + SMX (5) (100)",Staphylococcus aureus [2]; pteridine 10 μg/ml,12.0 centimeters
same,"complete zone inhibition, TMP (30)","Staphylococcus aureus [2]; pteridine 30 μg/ml in medium, TMP 30 μg/ml in well, about 6× magnification",11.0 centimeters
same,"complete zone inhibition, SMX (300)",Staphylococcus aureus [2]; pteridine 30 μg/ml,9.0 centimeters
same,"zone including partial inhibition, SMX (300)",Staphylococcus aureus [2]; pteridine 30 μg/ml,14.5 centimeters
same,"zone including partial inhibition, TMP (30)","Staphylococcus aureus [2]; pteridine 30 μg/ml, TMP 30 μg/ml",14.0 centimeters
same,"complete zone inhibition, TMP + SMX (5) (100)",Staphylococcus aureus [2]; pteridine 30 μg/ml,11.5 centimeters
same,"zone including partial inhibition, TMP + SMX (5) (100)",Staphylococcus aureus [2]; pteridine 30 μg/ml,14.5 centimeters
same,"complete zone inhibition, SMX (300)",Pseudomonas aeruginosa; pteridine 3 μg/ml,9.0 centimeters
same,"zone including partial inhibition, SMX (300)",Pseudomonas aeruginosa; pteridine 3 μg/ml,14.0 centimeters
same,"zone including partial inhibition, TMP (30)",Pseudomonas aeruginosa; pteridine 3 μg/ml,5.0 centimeters
same,"complete zone inhibition, TMP + SMX (5) (100)",Pseudomonas aeruginosa; pteridine 3 μg/ml,8.0 centimeters
same,"zone including partial inhibition, TMP + SMX (5) (100)",Pseudomonas aeruginosa; pteridine 3 μg/ml,11.0 centimeters
same,"complete zone inhibition, SMX (300)",Pseudomonas aeruginosa; pteridine 10 μg/ml,15.0 centimeters
same,"zone including partial inhibition, SMX (300)",Pseudomonas aeruginosa; pteridine 10 μg/ml,20.0 centimeters
same,"zone including partial inhibition, TMP (30)",Pseudomonas aeruginosa; pteridine 10 μg/ml,6.0 centimeters
same,"complete zone inhibition, TMP + SMX (5) (100)",Pseudomonas aeruginosa; pteridine 10 μg/ml,12.0 centimeters
same,"zone including partial inhibition, TMP + SMX (5) (100)",Pseudomonas aeruginosa; pteridine 10 μg/ml,15.0 centimeters
same,Mortality from Coccidiosis,"E. tenella; Expt. 1, 200,000 oocysts, SQX/DV/DMHP p.p.m in diet: -/-/250, -/-/90, -/-/30, -/-/10, 30/30/-, 30/30/250, 30/30/90, 30/30/30, 30/30/10",1/5 and 2/5 and 3/5
same,Mortality from Coccidiosis,"E. tenella; Expt. 4, 100,000 oocysts, p.p.m SQX/DV/DMHP: b374 10/-/-, b375 -/20/-, b376 -/-/10, b377 10/-/10, b378 -/20/10, b379 10/20/-, b381 10/20/10, b382 20/-/-, b383 -/40/-, b384 -/-/20, b385 20/-/20, b386 -/40/20, b387 20/40/-, b389 20/40/20",8/10 and 6/10
same,Mortality from Coccidiossis,"E. tenella; Expt. 5, 100,000 oocysts, SQX/DV p.p.m with DMHP 40, 20, 10, 5 p.p.m: b409-412 20/20, b413-416 26.7/13.3, b417-420 30/10, b421-424 32/8, b425-428 33.4/6.6, no DMHP: b429 20/20, b430 26.7/13.3, b431 30/10, b432 32/8, b433 33.4/6.6, DMHP alone b434-437 40, 20, 10, 5",19/20 and 18/20 and 20/20
same,activity alone against infection with E. tenella,E. tenella; all levels of concentration tested,inactive
same,potentiation of the activity of diaveridine/sulphaquinoxaline mixtures,E. tenella; in many cases by as much as,3 to 4 fold
same,inhibition at 10 µM,[3]; final concentration 1 × 10^-5 M,0%
same,inhibition at 2.5 µM,[3]; final concentration 2.5 × 10^-6 M,5%
same,inhibition at 87 µM,[3]; final concentration 8.7 × 10^-5 M,9%
same,zone of inhibition at 100 µg/disc,Escherichia coli CN 314,0 mm
same,Sulphamethoxazole increase in Activity,Staphylococcus aureus [4]; Conc. of DMHP 3.1 μg/ml,1 ×
same,Trimethoprim in the Presence of × 20 sulphamethoxazol increase in Activity,Staphylococcus aureus [4]; Conc. of DMHP 3.1 μg/ml,10 ×
same,Trimethoprim increase in Activity,Staphylococcus aureus [4]; Conc. of DMHP 3.1 μg/ml,10 ×
same,Sulphamethoxazole increase in Activity,Staphylococcus aureus [4]; Conc. of DMHP 6.2 μg/ml,10 ×
same,Trimethoprim in the Presence of × 20 sulphamethoxazol increase in Activity,Staphylococcus aureus [4]; Conc. of DMHP 6.2 μg/ml,30 ×
same,Trimethoprim increase in Activity,Staphylococcus aureus [4]; Conc. of DMHP 6.2 μg/ml,30 ×
same,Sulphamethoxazole increase in Activity,Staphylococcus aureus [4]; Conc. of DMHP 25 μg/ml,100 ×
same,Trimethoprim in the Presence of × 20 sulphamethoxazol increase in Activity,Staphylococcus aureus [4]; Conc. of DMHP 25 μg/ml,> 300 ×
same,Trimethoprim increase in Activity,Staphylococcus aureus [4]; Conc. of DMHP 25 μg/ml,300 ×
